Measurements from patent publication US20100210667A1, “IMIDAZO [1, 2-C] PYRIMIDIN-2-YLMETHYLPIPERIDINES AS OREXIN RECEPTOR ANTAGONISTS” (priority 2007, published 2010).
Ends that are not written are not given here.

system: food intake; test: not given; conditions: central administration, freely-feeding rats, 4 hour time period; cited from earlier work

| Compound | increase of food intake over control rats receiving vehicle |
| --- | --- |
| orexin-A: polypeptide ligand for the orexin-1 receptor, an agonist of the orexin receptors (QPLPDCCRQKTCSCRLYELLHGAGNHAAGILTL; ends and bridges not checked; cysteine pairing not given here; UniProt O43612 34-66, looked up) | approximately four-fold |

target: T1, human cloned orexin-1 receptor (alanine at position 280) (Homo sapiens, UniProt O43613); test: Antagonist affinity at human orexin-1 receptor using FLIPR ([Ca2+]i, CHO cells); format: cell-based; conditions: hOrexin A at EC80, IC50 converted to functional pKi by modified Cheng-Prusoff, read-out: fpKi at the human cloned orexin-1 receptor
T1 construct: expressed in transfected cells
T1 sequence (O43613 1-425): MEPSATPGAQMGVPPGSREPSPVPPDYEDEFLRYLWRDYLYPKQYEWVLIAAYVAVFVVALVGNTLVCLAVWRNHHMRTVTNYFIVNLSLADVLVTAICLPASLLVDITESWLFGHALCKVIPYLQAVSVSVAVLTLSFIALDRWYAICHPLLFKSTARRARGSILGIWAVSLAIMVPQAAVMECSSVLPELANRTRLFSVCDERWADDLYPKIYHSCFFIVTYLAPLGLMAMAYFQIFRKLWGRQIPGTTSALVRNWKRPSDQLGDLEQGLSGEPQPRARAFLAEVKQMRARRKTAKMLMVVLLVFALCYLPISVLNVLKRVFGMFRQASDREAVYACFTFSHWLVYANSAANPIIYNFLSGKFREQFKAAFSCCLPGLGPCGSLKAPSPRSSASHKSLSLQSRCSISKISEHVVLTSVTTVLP
Text: Determination of ANTAGONIST AFFINITY at Human Orexin-1 and 2 Receptors Using FLIPR
Adherent Chinese Hamster Ovary (CHO) cells, stably expressing the recombinant human Orexin-1 or human Orexin-2 receptors or Rat Basophilic Leukaemia Cells (RBL) stably expressing recombinant rat Orexin-1 or rat Orexin-2 receptors were maintained in culture in Alpha Minimum Essential Medium (Gibco/Invitrogen, cat. no.; 22571-020), supplemented with 10% decomplemented foetal bovine serum (Life Technologies, cat. no. 10106-078) and 400 μg/mL Geneticin G418 (Calbiochem, cat. no.345810). Cells were grown as monolayers under 95%:5% air:CO2 at 37° C.
The sequences of the human orexin 1, human orexin 2, rat orexin 1 and rat orexin 2 receptors used in this example were as published in Sakurai, T. et al (1998) Cell, 92 pp 573 to 585, with the exception that the human orexin 1 receptor sequence used had the amino acid residue alanine at position 280 and not glycine as reported in Sakurai et al.
Cells were seeded into black clear-bottom 384-well plates (density of 20,000 cells per well) in culture medium as described above and maintained overnight (95%:5% air:CO2 at 37° C.). On the day of the experiment, culture medium were discarded and the cells washed three times with standard buffer (NaCl, 145 mM; KCl, 5 mM; HEPES, 20 mM; Glucose, 5.5 mM; MgCl2, 1 mM; CaCl2, 2 mM) added with Probenecid 2.5 mM. The plates were then incubated at 37° C. for 60 minutes in the dark with 1 μM FLUO-4AM dye to allow cell uptake of the FLUO-4AM, which is subsequently converted by intracellular esterases to FLUO-4, which is unable to leave the cells. After incubation, cells were washed three times with standard buffer to remove extracellular dye and 30 μL of buffer were left in each well after washing.
Compounds of the invention were tested in a final assay concentration range from 1.66×10^−5M to 1.58×10^−11M. Compounds of the invention were dissolved in dimethylsulfoxide (DMSO) at a stock concentration of 10 mM. These stock solutions were serially diluted with DMSO and 1 μL of each dilution was transferred to a 384 well compound plate. Immediately before introducing compound to the cells, buffer solution (50 μl/well) was added to this plate. To allow agonist stimulation of the cells, a stock plate containing a solution of human orexin A (hOrexin A) was diluted with buffer to final concentration just before use. This final concentration of hOrexin A was equivalent to the calculated EC80 for hOrexinA agonist potency in this test system. This value was obtained by testing hOrexinA in concentration response curve (at least 16 replicates) the same day of the experiment.
The loaded cells were then incubated for 10min at 37° C. with test compound. The plates were then placed into a FLIPRTM (Molecular Devices, UK) to monitor cell fluorescence (λex=488 nm, λEM=540 nm) (Sullivan E, Tucker E M, Dale I L. Measurement of [Ca^2+]i, using the fluometric imaging plate reader (FLIPR). In: Lambert D G (ed.), Calcium Signaling Protocols. New Jersey: Humana Press, 1999, 125-136). A baseline fluorescence reading was taken over a 5 to 10 second period, and then 10 μL of EC80 hOrexinA solution was added. The fluorescence was then read over a 4-5 minute period.
Functional responses using FLIPR were measured as peak fluorescence intensity minus basal fluorescence and expressed as a percentage of a non-inhibited Orexin-A-induced response on the same plate. […]

| Ki [nM] | Compound |
| --- | --- |
| 0.631 to 3.98 | COc1ncn2cc(C[C@@H]3CCCCN3C(=O)c3nc(C)sc3-c3ccccc3)nc2c1C [Example 3, 8-methyl-7-(methyloxy)-2-({(2-S)-1-[(2-methyl-5-phenyl-1,3-thiazol-4-yl)carbonyl]-2-piperidinyl}methyl)imidazo[1,2-c]pyrimidine] |
| 0.631 to 3.98 | Cc1nc(C(=O)N2CCCC[C@H]2Cc2cn3cnc(C)c(C)c3n2)c(-c2ccccc2)s1 [Example 5, 7,8-dimethyl-2-({(2S)-1-[(2-methyl-5-phenyl-1,3-thiazol-4-yl)carbonyl]-2-piperidinyl}methyl)imidazo[1,2-c]pyrimidine] |

Further lines, the compound ahead of its results:

| Compound | Ki [nM] |
| --- | --- |
| Cc1nc(C(=O)N2CCCC[C@H]2Cc2cn3cnc(Cl)c(C)c3n2)c(-c2ccccc2)s1 [Example 1, 7-chloro-8-methyl-2-({2S)-1-[(2-methyl-5-phenyl-1,3-thiazol-4-ylcarbonyl]-2-piperidinyl}methyl)imidazo[1,2-c]pyrimidine] | 0.631 to 3.98 |
| Cc1nc(C(=O)N2CCCC[C@H]2Cc2cn3cncc(C)c3n2)c(-c2ccccc2)s1 [Example 2] | 0.631 to 3.98 |
| Cc1nc(C(=O)N2CCCC[C@H]2Cc2cn3cnc(C)c(Cl)c3n2)c(-c2ccccc2)s1 [Example 4, 8-chloro-7-methyl-2-({(2S)-1-[(2-methyl-5-phenyl-1,3-thiazol-4-yl)carbonyl]-2-piperidinyl}methyl)imidazo[1,2-c]pyrimidine] | 0.631 to 3.98 |
